Test systems include T47D; MDA-MB-231; HT-29; SK-MEL-28; U-251; SNB-75; SK-OV-3; OVCAR-4; NCI-H522; IGROV-1; A549; HCC 2998; MOLT-4; LOX IMVI; HL-60; OVCAR-3; K562; SNB-19; HOP-62; SW-620.
Assay in all cases: DTP human tumour cell line panel, 48 h

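Results reflect a 48-hour exposure of cells in 96-well plates to compound at five concentrations. Abbreviation: GI50, concentration required for 50% inhibition of growth.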 The source made the active and inactive calls. Cut-off read from the data, not from the text of the source: active = GI50 up to about 1.1 µM and inactive = higher.

For orientation: GI50 means the concentration at which growth is held to half of that of the control.

Turning to `CC1CN1C(=O)NCCCCCCNC(=O)N1CC1C` (stereo not given), the GI50 with T47D is > 73.1 µM (inactive); in the experiment with MDA-MB-231, > 100 µM (inactive); in the experiment with HT-29, > 100 µM (inactive); in the experiment with SK-MEL-28, > 100 µM (inactive); with U-251, 65.3 µM (inactive); with SNB-75 it was 62.7 µM (inactive). Also, the GI50 in the experiment on SK-OV-3 was 66.5 µM (inactive); in the experiment on OVCAR-4, > 100 µM (inactive); with NCI-H522, > 100 µM (inactive); in the experiment on IGROV-1, > 100 µM (inactive); with A549, 31.1 µM (inactive); in the experiment on HCC 2998 it was > 100 µM (inactive). For the same compound, the GI50 with MOLT-4 is 15.5 µM (inactive); in the experiment with LOX IMVI, 34.3 µM (inactive); in the experiment on HL-60 it was 11.9 µM (inactive); in the experiment with OVCAR-3, > 100 µM (inactive); with K562, > 97.5 µM (inactive); with SNB-19, > 86.7 µM (inactive). In addition, the GI50 in the experiment on HOP-62 was 30.2 µM (inactive); in the experiment with SW-620 it was > 100 µM (inactive).

For `Cn1cnc2c1c(=O)n(CCNCCO)c(=O)n2C`, the GI50 in the experiment on T47D, in the experiment on MDA-MB-231, with HT-29, in the experiment with SK-MEL-28, in the experiment with U-251 and in the experiment on SNB-75 was > 100 µM (inactive) throughout. In addition, the GI50 in the experiment on SK-OV-3, in the experiment on OVCAR-4, with NCI-H522, in the experiment with IGROV-1, in the experiment with A549 and in the experiment with HCC 2998 was > 100 µM (inactive) each time. Further, the GI50 in the experiment with MOLT-4, in the experiment on LOX IMVI, in the experiment with HL-60, with OVCAR-3, in the experiment with K562 and in the experiment on SNB-19 was > 100 µM (inactive) throughout. In addition, the GI50 in the experiment with HOP-62 and in the experiment with SW-620 was > 100 µM (inactive) in each case.

For `CN(O)C(=O)c1ccc(OCc2cccc(Cl)c2)cc1`, the GI50 was 43.1 µM (inactive) in the experiment with T47D; > 81.1 µM (inactive) with MDA-MB-231; 14.6 µM (inactive) in the experiment on HT-29; 40.7 µM (inactive) in the experiment on SK-MEL-28; 15.2 µM (inactive) in the experiment with U-251; 47.1 µM (inactive) in the experiment on SNB-75. Further, the GI50 with SK-OV-3 is 24.3 µM (inactive); with OVCAR-4, 21.6 µM (inactive); in the experiment on NCI-H522, 13.1 µM (inactive); with IGROV-1, 16.7 µM (inactive); in the experiment with A549 it was 16 µM (inactive); in the experiment on HCC 2998 it was 15.3 µM (inactive). Further, the GI50 in the experiment on MOLT-4 is 9.64 µM (inactive); in the experiment on LOX IMVI it was 7.94 µM (inactive); with HL-60, 6.12 µM (inactive); in the experiment with OVCAR-3, 19.2 µM (inactive); with K562 it was 22.6 µM (inactive); with SNB-19, 24.6 µM (inactive). The GI50 is 16.7 µM (inactive) in the experiment on HOP-62 and 32.8 µM (inactive) in the experiment with SW-620.

For the compound `COC(=O)c1ccccc1CC1Cc2ccc3c(c2C1=O)CCC3` (stereo not given), the GI50 in the experiment on T47D was 19.7 µM (inactive); in the experiment with MDA-MB-231 it was 46.2 µM (inactive); with HT-29, 27.9 µM (inactive); in the experiment on SK-MEL-28, 37.2 µM (inactive); in the experiment with U-251 it was 51.1 µM (inactive); with SNB-75, 13.8 µM (inactive). In addition, the GI50 was > 100 µM (inactive) in the experiment on SK-OV-3; 29.9 µM (inactive) in the experiment on OVCAR-4; 22.1 µM (inactive) with NCI-H522; > 100 µM (inactive) with IGROV-1; > 100 µM (inactive) in the experiment on A549; 28.2 µM (inactive) in the experiment with HCC 2998. For the same compound, the GI50 in the experiment with MOLT-4 was 25.1 µM (inactive); in the experiment with LOX IMVI it was 29.5 µM (inactive); in the experiment with HL-60, 16.6 µM (inactive); in the experiment on OVCAR-3, > 100 µM (inactive); in the experiment with K562, 33.2 µM (inactive); with SNB-19 it was > 100 µM (inactive). The GI50 in the experiment on HOP-62 is > 100 µM (inactive); in the experiment with SW-620, 99.1 µM (inactive).

On to `O=C1c2ccccc2S(=O)(=O)c2ccccc21`, for which the GI50 in the experiment on T47D, with MDA-MB-231, in the experiment on HT-29, with SK-MEL-28, in the experiment with U-251 and in the experiment with SNB-75 was > 100 µM (inactive) each time. Also, the GI50 in the experiment on SK-OV-3, in the experiment with OVCAR-4, in the experiment with NCI-H522, in the experiment with IGROV-1, with A549 and in the experiment on HCC 2998 was > 100 µM (inactive) each time. In addition, the GI50 in the experiment with MOLT-4, with LOX IMVI, in the experiment with HL-60, in the experiment with OVCAR-3, in the experiment on K562 and in the experiment with SNB-19 was > 100 µM (inactive) each time. The GI50 in the experiment on HOP-62 and in the experiment with SW-620 was > 100 µM (inactive) in each case.

Regarding `C=CC[C@H]1O[Si](C(C)(C)C)(C(C)(C)C)[C@H](C)[C@H]1C`, the GI50 in the experiment with T47D, in the experiment with MDA-MB-231, with HT-29, in the experiment with SK-MEL-28, in the experiment with U-251 and with SNB-75 was > 100 µM (inactive) in each case. Also, the GI50 with SK-OV-3, in the experiment with OVCAR-4, in the experiment on NCI-H522, in the experiment with IGROV-1, in the experiment with A549 and in the experiment with HCC 2998 was > 100 µM (inactive) in each case. The GI50 in the experiment on MOLT-4 was > 100 µM (inactive); in the experiment with LOX IMVI, > 100 µM (inactive); in the experiment on HL-60 it was > 100 µM (inactive); in the experiment with OVCAR-3 it was > 100 µM (inactive); with K562, > 100 µM (inactive); in the experiment on SNB-19, 13.6 µM (inactive). In addition, the GI50 with HOP-62 and with SW-620 was > 100 µM (inactive) throughout.

For the compound `CC1=NN(C(=O)CC(=O)Nc2ccccc2Cl)C(=O)C1/N=N\c1ccc(S(=O)(=O)c2ccc(/N=N/C3C(=O)N(C(=O)CC(=O)Nc4ccccc4Cl)N=C3C)cc2)cc1` (stereo not given), the GI50 in the experiment with T47D was > 100 µM (inactive); in the experiment on MDA-MB-231, 30.5 µM (inactive); in the experiment on HT-29, > 100 µM (inactive); in the experiment on SK-MEL-28, > 100 µM (inactive); in the experiment on U-251, > 100 µM (inactive); in the experiment with SNB-75 it was > 100 µM (inactive). The GI50 in the experiment with SK-OV-3, with OVCAR-4, in the experiment on NCI-H522, in the experiment with IGROV-1, with A549 and in the experiment with HCC 2998 was > 100 µM (inactive) throughout. The GI50 in the experiment on MOLT-4 is > 100 µM (inactive); in the experiment on LOX IMVI, 54.1 µM (inactive); with HL-60 it was > 100 µM (inactive); with OVCAR-3, > 100 µM (inactive); in the experiment with K562, > 100 µM (inactive); with SNB-19 it was > 100 µM (inactive). The GI50 with HOP-62 and in the experiment on SW-620 was > 100 µM (inactive) in each case.

Regarding `N#Cc1cccc(C2ON=C(c3ccc([N+](=O)[O-])cc3)N2C23CC4CC(CC(C4)C2)C3)c1` (stereo not given), the GI50 was 17.3 µM (inactive) in the experiment with T47D; 63.7 µM (inactive) in the experiment on MDA-MB-231; > 100 µM (inactive) in the experiment with HT-29; > 100 µM (inactive) with SK-MEL-28; > 100 µM (inactive) in the experiment with U-251; > 100 µM (inactive) with SNB-75. Besides, the GI50 is > 100 µM (inactive) in the experiment on SK-OV-3; 26.9 µM (inactive) in the experiment on OVCAR-4; 24.3 µM (inactive) in the experiment on NCI-H522; > 100 µM (inactive) in the experiment on IGROV-1; 27.4 µM (inactive) in the experiment with A549; > 100 µM (inactive) in the experiment with HCC 2998. Moreover, the GI50 in the experiment with MOLT-4 was 6.68 µM (inactive); in the experiment on LOX IMVI, 74.1 µM (inactive); in the experiment with HL-60, 8.69 µM (inactive); with OVCAR-3, 39.3 µM (inactive); in the experiment with K562, > 100 µM (inactive); in the experiment on SNB-19 it was > 100 µM (inactive). Moreover, the GI50 in the experiment with HOP-62 and in the experiment on SW-620 was > 100 µM (inactive) each time.

As for `COc1ccc(OC)c(CCc2cc(OC)ccc2OC)c1`, the GI50 in the experiment on T47D was > 2.12 µM (inactive); with MDA-MB-231 it was 3.66 µM (inactive); in the experiment on HT-29, 1.06 µM (active); in the experiment on SK-MEL-28, 3.28 µM (inactive); in the experiment on U-251 it was 4.81 µM (inactive); in the experiment on SNB-75 it was 2.41 µM (inactive). Besides, the GI50 in the experiment with SK-OV-3 is 4.33 µM (inactive); with OVCAR-4 it was > 10 µM (inactive); in the experiment on NCI-H522, 1.39 µM (inactive); in the experiment with IGROV-1, 1.69 µM (inactive); in the experiment with A549, 5.28 µM (inactive); in the experiment with HCC 2998, 3.79 µM (inactive). Besides, the GI50 with MOLT-4 was 1.91 µM (inactive); in the experiment on LOX IMVI, 0.676 µM (active); in the experiment with HL-60, 1.5 µM (inactive); with OVCAR-3 it was 0.431 µM (active); in the experiment with K562, 0.912 µM (active); in the experiment on SNB-19, 4.8 µM (inactive). Moreover, the results for the GI50 in the experiment on HOP-62 and in the experiment on SW-620 were 3.73 µM (inactive) and 0.935 µM (active), respectively.
